Results taken from US20150284362A1, “CARBAZOLE-CONTAINING AMIDES, CARBAMATES, AND UREAS AS CRYPTOCHROME MODULATORS” (ReSet Therapeutics, Inc., priority 2014, published 2015).

Tested on: Dbp mRNA in whole blood
Experiment: Dbp mRNA in whole blood of db/db mice after three daily doses
Type: in vivo, mouse
Details: 100 mg/kg PO once daily for three days at ZT0, blood at ZT7.5
Protocol: For whole blood RNA studies, male db/db mice (9 weeks of age, The Jackson Laboratory, Bar Harbor, Me.) were used for the experiment with n=8 mice for each experimental group. […] On the final day at ZT7.5 (2:30 pm), animals were euthanized using CO2 asphyxiation, and the blood collected from the heart via cardiac puncture. The blood was placed in RNALater solution to 1.5 ml total volume. Total RNA was prepared using an Ambion Mouse RiboPure Blood RNA Isolation Kit AM1951 as follows. Samples were centrifuged for 3 minutes, discarding the supernatant. Two ml of lysis solution was added and vortexed, transferred to a 15 ml tube followed by the addition of microliters 3M Sodium Acetate. […]
RediPlate 96 RiboGreen RNA Quantification Kit (Invitrogen) RediPlate standard curve was prepared by transferring 20 μl reconstituted RNA standard to a RediPlate well reconstituted in 180 μl RediPlate TE buffer. […] After transferring 5 μl to RediPlate well reconstituted in 195 μl TE buffer and incubating 10 min. at RT, Fluorescence Intensity of wells with standards and samples were read in a Tecan M200 with Excitation set at 480 nm and Emission set at 520 nm with the gain set to ˜70%. […] A standard curve was generated in GraphPad Prism and sample readings (unknowns) are interpolated via linear regression analysis, and the RNA sample concentrations were calculated. […]

O=C1NCCN1CC(O)Cn1c2ccc(F)cc2c2cc(F)ccc21 (stereo not shown) [Compound 72, 1-(3-(3,6-difluoro-9H-carbazol-9-yl)-2-hydroxypropyl)imidazolidin-2-one]
Dbp gene expression in whole blood: statistically significant suppression
